Measured values as given in US20210003596A1, “CHEMILUMINESCENT ANDROSTENEDIONE CONJUGATES” (Siemens Healthcare Diagnostics Inc., priority 2017, published 2021).

Assays:
Experiment in all cases: Competitive chemiluminescent immunoassay (ADVIA Centaur), binding of A4-AE conjugates to antibody on solid phase
Design in all cases: species or system sheep; key: a “+” indicates appreciable binding of the specified A4-AE conjugate to the specified antibody; a “−” indicates no appreciable binding was observed
[1] = test system: monoclonal androstenedione antibody 3C3; settings: binding of A4-AE conjugate to 3C3 antibody, chemiluminescence; lite reagent 20 ng/mL tracer
Method: (§1) Evaluation of A4-AE conjugates was performed using the ADVIA Centaur family of immunoassay analyzers (available from Siemens Healthcare Diagnostics Inc., Tarrytown, N.Y.) using a competitive assay format which utilizes a solid phase reagent and a lite reagent. The lite reagent comprises 20 ng/mL of an A4-AE tracer compound. The solid reagent comprises superparamagnetic beads (Dynabeads® M-270 Streptavidin available from ThermoFisher Scientific) labeled with biotinylated monoclonal anti-A4 antibody. Biotinylated sheep monoclonal androstenedione antibodies 3C3, 3H10, or 4G8 (available from Bioventix, UK) are introduced to the streptavidin coated superparamagnetic beads in order to produce solid phase particles attached to the antibody. Solid phase particles mixed with A4-AE in the absence of A4, results in solid phase binding complexes with the A4-AE compounds. When the […], competition for formation of a binding complex at each antibody occurs between A4 and A4-AE conjugates. […] Therefore, an increase in androstenedione concentration in measured samples correlates with a decrease in chemiluminescence of separated and washed solid phase particles binding complexes. Chemiluminescence of the separated solid phase particle binding complexes is induced by addition of an acidic solution (0.5% Peroxide/0.45% Nitric Acid (vol/vol)) followed by a basic solution (0.25N […]/0.45% ARQUAD® 16-50 (w/v)) and measured. Reagent volumes, concentrations, and assay parameters were otherwise identical in each experiment other than variation of the A4-AE tracer conjugate measured. Samples of androstenedione used in the lite reagent were prepared using a human serum albumin-based matrix (available from Bioresource Technology, Inc.) with the androstenedione sample concentrations shown in FIGS. 2A-2D (ng/mL).
(§2) Chemiluminescence was monitored for a variety of A4-AE conjugates. Table 2 below and the corresponding FIGS. 2A-2D summarize the results of chemiluminescent experiments on several A4-AE conjugates which may be synthesized as described in the indicated Example number. In Table 3 a “+” indicates appreciable binding of the specified A4-AE conjugate to the specified antibody and a “−” indicates no appreciable binding was observed.

[2] = test system: monoclonal androstenedione antibody 4G8; settings: binding of A4-AE conjugate to 4G8 antibody, chemiluminescence; lite reagent 20 ng/mL tracer
Method: as §1, §2

[3] = test system: monoclonal androstenedione antibody 3H10; settings: binding of A4-AE conjugate to 3H10 antibody, chemiluminescence; lite reagent 20 ng/mL tracer
Method: as §1, §2

Compound | 3C3 [1] | 4G8 [2] | 3H10 [3]
Cc1cc(C(=O)NCCC[N+](C)(CCCNC(=O)CON=C2CCC3C4CCC5=CC(=O)CCC5(C)C4CCC23C)CCCS(=O)(=O)[O-])cc(C)c1OC(=O)c1c2ccccc2[n+](CCCS(=O)(=O)[O-])c2ccccc12 (stereo not drawn) [compound 2, A4(17)-CMO-Z-ZAE] | − | − | −
Cc1cc(C(=O)NCCC[N+](C)(CCCNC(=O)COC[C@]23CCC(=O)C=C2CCC2C3CC[C@]3(C)C(=O)CCC23)CCCS(=O)(=O)[O-])cc(C)c1OC(=O)c1c2ccccc2[n+](CCCS(=O)(=O)[O-])c2ccccc12 (stereo partly drawn) [compound 3, A4(19)-CME-NH-Z-ZAE] | − | + | +
Cc1cc(C(=O)NCCC[N+](C)(CCCNC(=O)CCC(=O)OC2CC3C4CCC(=O)C4(C)CCC3C3(C)CCC(=O)C=C23)CCCS(=O)(=O)[O-])cc(C)c1OC(=O)c1c2ccccc2[n+](CCCS(=O)(=O)[O-])c2ccccc12 (stereo not drawn) [compound 4, A4(6β)-hemisuccinate-NH-Z-ZAE] | + | + | +
Cc1cc(C(=O)NCCC[N+](C)(CCCNC(=O)OC2CC3C4CCC(=O)C4(C)CCC3C3(C)CCC(=O)C=C23)CCCS(=O)(=O)[O-])cc(C)c1OC(=O)c1c2ccccc2[n+](CCCS(=O)(=O)[O-])c2ccccc12 (stereo not drawn) [compound 5, A4(6β)-carbamate-NH-Z-ZAE] | − | − | −
Cc1cc(C(=O)NCCC[N+](C)(CCCNC(=O)CCSC2CC3=CC(=O)CCC3(C)C3CCC4(C)C(=O)CCC4C23)CCCS(=O)(=O)[O-])cc(C)c1OC(=O)c1c2ccccc2[n+](CCCS(=O)(=O)[O-])c2ccccc12 (stereo not drawn) [compound 6, A4(7α)-CETE-NH-Z-ZAE] | + | + | +
A4(3)-CMO-Z-ZAE [compound 1] | + | − | +
